# Test results published in patent US8748426B2, “Inhibitors of diacylglycerol acyl transferase” (Piramal Enterprises Limited, priority 2009, dated 2014).
# Target: T1, hDGAT1 (Homo sapiens, UniProt O75907)
# T1 sequence (O75907 1-488): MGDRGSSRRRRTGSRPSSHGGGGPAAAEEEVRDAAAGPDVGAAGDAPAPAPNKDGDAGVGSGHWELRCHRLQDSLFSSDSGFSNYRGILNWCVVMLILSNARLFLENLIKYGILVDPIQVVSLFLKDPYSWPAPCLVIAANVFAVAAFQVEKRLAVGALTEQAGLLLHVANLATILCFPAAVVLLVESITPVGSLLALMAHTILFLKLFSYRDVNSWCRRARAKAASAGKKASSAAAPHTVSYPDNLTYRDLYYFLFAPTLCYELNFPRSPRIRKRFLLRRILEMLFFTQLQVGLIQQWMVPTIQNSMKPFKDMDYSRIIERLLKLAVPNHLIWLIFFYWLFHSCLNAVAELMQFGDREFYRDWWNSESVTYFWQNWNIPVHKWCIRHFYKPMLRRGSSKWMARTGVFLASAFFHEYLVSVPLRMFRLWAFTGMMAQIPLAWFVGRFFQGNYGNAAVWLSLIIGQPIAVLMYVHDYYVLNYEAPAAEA
# Assay: In-vitro DGAT1 assay (14C oleoyl CoA, hDGAT1 microsomes from Sf9 cells)
# Settings: for inhibition at 1 µM: read-out: % Inhibition of hDGAT1; for % Inhibition of hDGAT1: at 1 μM
inhibition at 1 µM,Compound,% Inhibition of hDGAT1
> 50%,"CC(C)[C@@H](C(=O)O)N1Cc2ccc(-c3ccc(NC(=O)c4ccc5c(c4)C(C)(C)CCC5(C)C)cc3)cc2C1=O [Example 176, (S)-3-Methyl-2-(1-oxo-6-(4-(5,5,8,8-tetramethyl-5,6,7,8-tetrahydronaphthalene-2-carboxamido)phenyl)isoindolin-2-yl)butanoic acid]",
10 to 50%,"CC(C)[C@@H](C(=O)O)N1Cc2cc(-c3ccc(NS(=O)(=O)C4CCCCC4)cc3)ccc2C1=O [Example 303, (S)-2-(5-(4-(Cyclohexanesulfonamido)phenyl)-1-oxoisoindolin-2-yl)-3-methylbutanoic acid]",
> 50%,"CC(C)[C@@H](C(=O)O)N1Cc2cc(-c3ccc(NC(=O)Nc4cccc(F)c4)cc3)ccc2C1=O [Example 229, (S)-2-(5-(4-(3-(3-Fluorophenyl)ureido)phenyl)-1-oxoisoindolin-2-yl)-3-methyl butanoic acid]",
10 to 50%,"COc1cccc(NC(=S)Nc2ccc(-c3ccc4c(c3)CN([C@H](C(=O)O)C(C)C)C4=O)cc2)c1 [Example 263, (S)-2-(5-(4-(3-(3-Methoxyphenyl)thioureido)phenyl)-1-oxoisoindolin-2-yl)-3-methyl butanoic acid]",
> 50%,"CC(C)[C@@H](C(=O)O)N1Cc2ccc(-c3ccc(NC(=O)c4ccc(OC(F)(F)F)cc4)cc3)cc2C1=O [Example 158, (S)-3-Methyl-2-(1-oxo-6-(4-(4-(trifluoromethoxy)benzamido)phenyl)isoindolin-2-yl)butanoic acid]",
> 50%,"Cc1ccc(C(=O)Nc2ccc(-c3ccc4c(c3)C(=O)N([C@H](C(=O)O)C(C)C)C4)cc2)cc1 [Example 112, (S)-3-Methyl-2-(6-(4-(4-methylbenzamido)phenyl)-1-oxoisoindolin-2-yl)butanoic acid]",
> 50%,"CC(C)[C@@H](C(=O)O)N1Cc2ccc(-c3ccc(NC(=O)c4ncc(-c5ccccc5)o4)cn3)cc2C1=O [Example 635, (S)-3-Methyl-2-(1-oxo-6-(5-(5-phenyloxazole-2-carboxamido)pyridin-2-yl)isoindolin-2-yl)butanoic acid]",
> 50%,"CC(C)[C@@H](C(=O)O)N1Cc2ccc(-c3ccc(NC(=O)c4ccc(C(C)(C)C#N)cc4)cc3)cc2C1=O [Example 631, (S)-2-(6-(4-(4-(2-Cyanopropan-2-yl)benzamido)phenyl)-1-oxoisoindolin-2-yl)-3-methylbutanoic acid]",
,"Cc1ccc(C(=O)Nc2ccc(-c3ccc4c(c3)C(=O)N(C35C[C@@H]6C[C@@H](CC(C(=O)O)(C6)C3)C5)C4)cc2)cc1 [Example 572, (1r,3s,5R,7S)-3-(6-(4-(4-Methylbenzamido)phenyl)-1-oxoisoindolin-2-yl)adamantane-1-carboxylic acid]",++ (>50% Inhibition)
> 50%,"CC(C)[C@@H](C(=O)O)N1Cc2ccc(-c3ccc(NC(=O)c4ccc(OC(F)(F)F)cc4)cc3F)cc2C1=O [Example 608, (S)-2-(6-(2-Fluoro-4-(4-(trifluoromethoxy)benzamido)phenyl)-1-oxoisoindolin-2-yl)-3-methylbutanoic acid]",
,"COc1cc(NC(=O)c2ccc(-c3ccccc3)cc2)ccc1-c1ccc2c(c1)C(=O)N([C@H](C(=O)O)C(C)C)C2 [Example 458, (S)-2-(6-(4-Biphenyl-4-ylcarboxamido-2-methoxyphenyl)-1-oxoisoindolin-2-yl)-3-methylbutanoic acid]",++ (>50% Inhibition)
> 50%,"CC(C)[C@@H](C(=O)O)N1Cc2ccc(-c3ccc(NC(=O)Nc4ccc5c(c4)CCC5)cn3)cc2C1=O [Example 402, (S)-2-(6-(5-(3-(2,3-Dihydro-1H-inden-5-yl)ureido)pyridin-2-yl)-1-oxoisoindolin-2-yl)-3-methylbutanoic acid]",
10 to 50%,"O=C(Nc1ccc(-c2ccc3c(c2)C(=O)N([C@H](C(=O)O)c2ccccc2)C3)cc1)Nc1cccc(C(F)(F)F)c1 [Example 346, (S)-2-(1-Oxo-6-(4-(3-(3-(trifluoromethyl)phenyl)ureido)phenyl)isoindolin-2-yl)-2-phenylacetic acid]",
> 50%,"CC(C)[C@@H](C(=O)O)N1Cc2ccc(-c3ccc(NC(=O)c4cccc(F)c4)cc3)cc2C1=O [Example 106, (S)-2-(6-(4-(3-Fluorobenzamido)phenyl)-1-oxoisoindolin-2-yl)-3-methylbutanoic acid]",
> 50%,"Cc1ccccc1NC(=S)Nc1ccc(-c2ccc3c(c2)C(=O)N([C@H](C(=O)O)C(C)C)C3)cc1 [Example 72, (S)-3-Methyl-2-(1-oxo-6-(4-(3-o-tolylthioureido)phenyl)isoindolin-2-yl)butanoic acid]",
> 50%,"Cc1cc(NC(=O)c2ccc(OC(F)(F)F)cc2)ccc1-c1ccc2c(c1)C(=O)N([C@H](C(=O)O)C(C)C)C2 [Example 476, (S)-3-Methyl-2-(6-(2-methyl-4-(4-(trifluoromethoxy)benzamido)phenyl)-1-oxoisoindolin-2-yl)butanoic acid]",
> 50%,"CC(C)[C@@H](C(=O)O)N1Cc2ccc(-c3ccc(NC(=O)Nc4ccc(Cl)cc4Oc4ccccc4)cn3)cc2C1=O [Example 396, (S)-2-(6-(5-(3-(4-Chloro-2-phenoxyphenyl)ureido)pyridin-2-yl)-1-oxoisoindolin-2-yl)-3-methylbutanoic acid]",
> 50%,"CC(C)[C@@H](C(=O)O)N1Cc2cc(-c3ccc(NC(=O)Nc4ccc(F)cc4)cc3)ccc2C1=O [Example 225, (S)-2-(5-(4-(3-(4-Fluorophenyl)ureido)phenyl)-1-oxoisoindolin-2-yl)-3-methylbutanoic acid]",
> 50%,"CC(C)[C@@H](C(=O)O)N1Cc2ccc(-c3ccc(NC(=O)c4ccc(F)cc4F)cc3)cc2C1=O [Example 110, (S)-2-(6-(4-(2,4-Difluorobenzamido)phenyl)-1-oxoisoindolin-2-yl)-3-methyl butanoic acid]",
10 to 50%,"CC(C)[C@@H](C(=O)O)N1Cc2ccc(-c3ccc(NC(=O)c4ccc(-c5cncnc5)cc4)cc3)cc2C1=O [Example 653, (S)-3-Methyl-2-(1-oxo-6-(4-(4-(pyrimidin-5-yl)benzamido)phenyl)isoindolin-2-yl)butanoic acid]",
10 to 50%,"CCCCCc1ccc(C(=O)Nc2ccc(-c3ccc4c(c3)C(=O)N(C(C)(C)C(=O)O)C4)cc2)cc1 [Example 525, 2-Methyl-2-(1-oxo-6-(4-(4-pentylbenzamido)phenyl)isoindolin-2-yl)propanoic acid]",
> 50%,"COc1ccccc1NC(=S)Nc1ccc(-c2ccc3c(c2)CN([C@H](C(=O)O)C(C)C)C3=O)cc1 [Example 281, (S)-2-(5-(4-(3-(2-Methoxyphenyl)thioureido)phenyl)-1-oxoisoindolin-2-yl)-3-methylbutanoic acid]",
10 to 50%,"CCCCCc1ccc(C(=O)Nc2ccc(-c3ccc4c(c3)C(=O)N([C@H](C(=O)O)C(C)C)C4)c(OC)c2)cc1 [Example 462, (S)-2-(6-(2-Methoxy-4-(4-pentylbenzamido)phenyl)-1-oxoisoindolin-2-yl)-3-methylbutanoic acid]",
,"CC(C)[C@H](C(=O)O)N1Cc2ccc(-c3ccc(NC(=O)c4ccc(-c5ccccc5)cc4)cc3)cc2C1=O [Example 541, (R)-2-(6-(4-([1,1′-Biphenyl]-4-ylcarboxamido)phenyl)-1-oxoisoindolin-2-yl)-3-methylbutanoic acid]",++ (>50% Inhibition)
10 to 50%,"CC(C)[C@@H](C(=O)O)N1Cc2ccc(-c3ccc(NC(=O)c4ccc(N5CCOCC5)nc4)cc3)cc2C1=O [Example 213, (S)-3-Methyl-2-(6-(4-(6-morpholinonicotinamido)phenyl)-1-oxoisoindolin-2-yl)butanoic acid]",
10 to 50%,"COc1ccccc1NC(=S)Nc1ccc(-c2ccc3c(c2)C(=O)N([C@H](C(=O)O)C(C)C)C3)cc1 [Example 74, (S)-2-(6-(4-(3-(2-Methoxyphenyl)thioureido)phenyl)-1-oxoisoindolin-2-yl)-3-methylbutanoic acid]",
> 50%,"CC(C)[C@@H](C(=O)O)N1Cc2ccc(-c3ccc(NC(=O)c4ccc(Cl)cc4)cc3)cc2C1=O [Example 114, (S)-2-(6-(4-(4-Chlorobenzamido)phenyl)-1-oxoisoindolin-2-yl)-3-methylbutanoic acid]",
10 to 50%,"CC(C)[C@@H](C(=O)O)N1Cc2ccc(-c3ccc(NC(=O)Nc4ccccc4)cc3)cc2C1=O [Example 16, (S)-3-Methyl-2-(1-oxo-6-(4-(3-phenylureido)phenyl)isoindolin-2-yl)butanoic acid]",
> 50%,"CC(C)[C@@H](C(=O)O)N1Cc2cc(-c3ccc(NC(=O)Nc4cccc(C#N)c4)cc3)ccc2C1=O [Example 255, (S)-2-(5-(4-(3-(3-Cyanophenyl)ureido)phenyl)-1-oxoisoindolin-2-yl)-3-methylbutanoic acid]",

Compound,inhibition at 1 µM,% Inhibition of hDGAT1
"CCCCOc1ccc(C(=O)Nc2ccc(-c3ccc4c(c3)C(=O)N([C@H](C(=O)O)C(C)C)C4)cc2F)cc1 [Example 452, (S)-2-(6-(4-(4-Butoxybenzamido)-3-fluorophenyl)-1-oxoisoindolin-2-yl)-3-methyl butanoic acid]",> 50%,
"CCCCOc1ccc(C(=O)Nc2ccc(-c3ccc4c(c3)C(=O)N([C@H](C(=O)O)C(C)C)C4)cc2)cc1 [Example 136, (S)-2-(6-(4-(4-Butoxybenzamido)phenyl)-1-oxoisoindolin-2-yl)-3-methyl butanoic acid]",> 50%,
